# Target: ASK1 (Homo sapiens (Human), UniProt Q99683)
# Assay: HTRF KinEASE Assay (TR-FRET, STK3 peptide substrate), inhibition of ASK1
# Assay type: biochemical
# Settings: 5 nM ASK1 kinase, 1 μM STK3 peptide substrate, 100 μM ATP, 3 hours; compound 0 to 10 μM
# Procedure: Assay HTRF® KinEASE™ Assay
# ASK1 was purchased from Thermofisher (Catalogue # PV4011), ATP was purchased from Sigma (Catalogue # A7699), HI-TRF® KinEASE™ Assay System was obtained from Cisbio (Bedford, Mass.). […] HTRF® KinEASE™-STK is a generic method for measuring serine/threonine kinase activities using a time-resolved fluorescence resonance energy transfer (TR-FRET) immunoassay. […] 100 Um ATP is added to start kinase reaction and incubated for 3 hours. The STK3-antibody labeled with Eu^3+-Cryptate and 125 Nm streptavidin-XL665 are mixed in a single addition with stop reagents provided by the Cisbio kit used to stop the kinase reaction. […] The resulting TR-FRET is proportional to the phosphorylation level. Staurosporine was used as the positive control. IC50 was determined by Xlfit 5.3.
# By using above method, the inhibition of ASK1 was evaluated for the compounds of Formula (I).
# ASK1, sequence (Q99683 whole entry): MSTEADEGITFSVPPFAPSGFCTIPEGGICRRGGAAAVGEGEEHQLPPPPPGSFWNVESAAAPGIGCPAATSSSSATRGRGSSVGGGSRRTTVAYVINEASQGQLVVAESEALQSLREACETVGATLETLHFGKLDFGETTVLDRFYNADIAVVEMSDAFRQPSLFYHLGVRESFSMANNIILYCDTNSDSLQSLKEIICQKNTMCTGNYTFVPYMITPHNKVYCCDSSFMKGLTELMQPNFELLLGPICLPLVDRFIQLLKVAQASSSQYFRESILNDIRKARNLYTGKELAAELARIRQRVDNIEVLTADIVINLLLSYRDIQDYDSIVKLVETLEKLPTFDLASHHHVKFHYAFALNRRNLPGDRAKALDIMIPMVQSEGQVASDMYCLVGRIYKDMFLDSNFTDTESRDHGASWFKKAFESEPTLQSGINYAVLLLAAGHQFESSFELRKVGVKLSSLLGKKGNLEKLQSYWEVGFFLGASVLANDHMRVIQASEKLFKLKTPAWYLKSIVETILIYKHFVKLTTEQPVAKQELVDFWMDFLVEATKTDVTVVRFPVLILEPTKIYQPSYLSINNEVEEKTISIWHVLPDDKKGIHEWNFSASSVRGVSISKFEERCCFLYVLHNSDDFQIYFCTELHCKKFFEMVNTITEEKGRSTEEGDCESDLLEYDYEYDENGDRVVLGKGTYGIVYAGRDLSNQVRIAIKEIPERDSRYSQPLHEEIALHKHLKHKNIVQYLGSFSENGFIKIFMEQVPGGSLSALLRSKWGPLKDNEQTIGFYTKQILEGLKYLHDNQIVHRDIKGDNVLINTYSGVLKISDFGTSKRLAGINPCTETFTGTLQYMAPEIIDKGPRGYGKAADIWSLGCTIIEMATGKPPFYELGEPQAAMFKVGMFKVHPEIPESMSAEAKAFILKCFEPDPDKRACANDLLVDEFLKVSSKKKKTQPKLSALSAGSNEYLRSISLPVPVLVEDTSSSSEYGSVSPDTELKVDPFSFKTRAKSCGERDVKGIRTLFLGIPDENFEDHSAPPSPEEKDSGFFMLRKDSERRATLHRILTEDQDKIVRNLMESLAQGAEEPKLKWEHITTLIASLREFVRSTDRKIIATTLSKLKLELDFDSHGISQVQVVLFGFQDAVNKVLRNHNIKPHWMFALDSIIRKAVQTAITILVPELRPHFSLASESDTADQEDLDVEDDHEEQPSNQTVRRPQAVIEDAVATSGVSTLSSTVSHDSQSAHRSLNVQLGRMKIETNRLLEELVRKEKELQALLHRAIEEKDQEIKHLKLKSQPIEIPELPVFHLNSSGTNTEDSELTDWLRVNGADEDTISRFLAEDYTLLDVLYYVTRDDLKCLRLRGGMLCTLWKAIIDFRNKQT
row,SMILES,IC50 [nM]
1,CC(C)n1nnnc1-c1cccc(NC(=O)c2cc3c(cc2F)CCN(C(=O)N(C)CC(F)(F)F)C3)n1 [Example 77],10 to 100
2,CC(C)n1nnnc1-c1cccc(NC(=O)c2cc3c(cc2F)CCN(C(=O)N(C)C2CCCC2)C3)n1 [Example 78],10 to 100
3,CC(C)CN(C)C(=O)N1CCc2cc(F)c(C(=O)Nc3cccc(-c4nnnn4C(C)C)n3)cc2C1 [Example 79],10 to 100
4,CC(C)N(C)C(=O)N1CCc2cc(F)c(C(=O)Nc3cccc(-c4nnnn4C(C)C)n3)cc2C1 [Example 80],10 to 100
5,CC(=O)OC[C@@H](C)n1nnnc1-c1cccc(NC(=O)c2cc3c(cc2F)CCNC3)n1 [Example 81],> 1000
6,C[C@H](CO)n1nnnc1-c1cccc(NC(=O)c2cc3c(cc2F)CCN(S(=O)(=O)CCC(F)(F)F)C3)n1 [Example 82],1 to 10
7,"CC(C)c1nnnn1-c1cccc(NC(=O)c2cc3c(cc2F)CCN(C(=O)OCc2ccccc2)C3)n1 [Example 83, benzyl 6-fluoro-7-((6-(5-isopropyl-1H-tetrazol-1-yl)pyridin-2-yl)carbamoyl)-3,4-dihydroisoquinoline-2(1H)-carboxylate]",> 1000
8,CC(=O)OC[C@@H](C)n1nnnc1-c1cccc(NC(=O)c2cc3c(cc2F)CCN(S(=O)(=O)CCC(F)(F)F)C3)n1 [Example 84],> 1000
9,CC(C)n1nnnc1-c1cccc(NC(=O)c2cc3c(cc2F)CCN(S(=O)(=O)C2CCCC2)C3)n1 [Example 85],10 to 100
10,CC(C)CS(=O)(=O)N1CCc2cc(F)c(C(=O)Nc3cccc(-c4nnnn4C(C)C)n3)cc2C1 [Example 86],10 to 100
11,CC(C)n1nnnc1-c1cccc(NC(=O)c2cc3c(cc2F)CCN(S(=O)(=O)CC2CC2)C3)n1 [Example 87],10 to 100
12,CC(C)n1nnnc1-c1cccc(NC(=O)c2cc3c(cc2F)CCN(S(=O)(=O)C2CC2)C3)n1 [Example 88],> 1000
13,CC(C)n1nnnc1-c1cccc(NC(=O)c2cc3c(cc2F)CCN(S(=O)(=O)N(C)C)C3)n1 [Example 89],10 to 100
14,CCN1CCN(C(=O)N2CCc3cc(F)c(C(=O)Nc4cccc(-c5nnnn5C(C)C)n4)cc3C2)C(=O)C1=O [Example 90],10 to 100
15,CC(C)n1nnnc1-c1cccc(NC(=O)c2cc3c(cc2F)CCN(C(=O)N2CCN(C)CC2)C3)n1 [Example 91],10 to 100
16,CC(C)n1nnnc1-c1cccc(NC(=O)c2cc3c(cc2F)CCN(C(=O)N2CCOCC2)C3)n1 [Example 92],10 to 100
17,CC(C)n1nnnc1-c1cccc(NC(=O)c2cc3c(cc2F)CCN(C(=O)N2CCCC2)C3)n1 [Example 93],10 to 100
18,CCN(CC)C(=O)N1CCc2cc(F)c(C(=O)Nc3cccc(-c4nnnn4C(C)C)n3)cc2C1 [Example 94],1 to 10
19,CCN(C)C(=O)N1CCc2cc(F)c(C(=O)Nc3cccc(-c4nnnn4C(C)C)n3)cc2C1 [Example 95],10 to 100
20,CC(C)n1nnnc1-c1cccc(NC(=O)c2cc3c(cc2F)CCN(C(=O)N(C)C)C3)n1 [Example 96],10 to 100
21,CC(C)n1nnnc1-c1cccc(NC(=O)c2cc3c(cc2F)CCN(C(=O)C2CCCC2)C3)n1 [Example 97],10 to 100

row,SMILES,IC50 [nM]
1,"CCN1CCc2cc(F)c(C(=O)Nc3cccc(-c4nnnn4C(C)C)n3)cc2C1=O [Example 98, 2-ethyl-6-fluoro-N-(6-(1-isopropyl-1H-tetrazol-5-yl)pyridin-2-yl)-1-oxo-1,2,3,4-tetrahydroisoquinoline-7-carboxamide]",> 1000
2,CC(C)c1nnnn1-c1cccc(NC(=O)c2cc3c(cc2F)CCN(C(=O)N(C)CCC(F)(F)F)C3)n1 [Example 99],100 to 1000
3,CC(C)c1nnnn1-c1cccc(NC(=O)c2cc3c(cc2F)CCN(S(=O)(=O)CCC(F)(F)F)C3)n1 [Example 100],> 1000
4,CCN(C)C(=O)N1CCc2cc(F)c(C(=O)Nc3cccc(-n4nnnc4C(C)C)n3)cc2C1 [Example 101],> 1000
5,CC(C)n1nnnc1-c1cccc(NC(=O)c2cc3c(cc2F)CCN(S(=O)(=O)CC2CC(F)(F)C2)C3)n1 [Example 102],10 to 100
6,CC(C)n1nnnc1-c1cccc(NC(=O)c2cc3c(cc2F)CCN(S(=O)(=O)CC(F)F)C3)n1 [Example 103],10 to 100
7,CC(C)n1nnnc1-c1cccc(NC(=O)c2cc3c(cc2F)CCN(C(=O)N2CCS(=O)(=O)CC2)C3)n1 [Example 104],10 to 100
8,CC(C)n1nnnc1-c1cccc(NC(=O)c2cc3c(cc2F)CCN(C(=O)N2CCSCC2)C3)n1 [Example 105],10 to 100
9,CC(C)n1nnnc1-c1cccc(NC(=O)c2cc3c(cc2F)CCN(C(=O)N2C[C@@H](C)O[C@@H](C)C2)C3)n1 [Example 106],10 to 100
10,CC(C)n1nnnc1-c1cccc(NC(=O)c2cc3c(cc2F)CCN(C(=O)N(C)CCC(F)(F)F)C3)n1 [Example 107],10 to 100
11,"CC1c2cc(C(=O)Nc3cccc(-c4nnnn4C(C)C)n3)c(F)cc2CCN1CC(=O)N1CCCC1 (stereo not drawn) [Example 108, 6-fluoro-N-(6-(1-isopropyl-1H-tetrazol-5-yl)pyridin-2-yl)-1-methyl-2-(2-oxo-2-(pyrrolidin-1-yl)ethyl)-1,2,3,4-tetrahydroisoquinoline-7-carboxamide]",100 to 1000
12,CC(=O)OC[C@@H](C)n1nnnc1-c1cccc(NC(=O)c2cc3c(cc2F)CCN(C(=O)OCc2ccccc2)C3)n1 [Example 109],> 1000
13,"CC(C)n1nnnc1-c1cccc(NC(=O)c2cc3c(cn2)CCN(S(=O)(=O)C2CC2)C3)n1 [Example 110, 6-(cyclopropylsulfonyl)-N-(6-(1-isopropyl-1H-tetrazol-5-yl)pyridin-2-yl)-5,6,7,8-tetrahydro-2,6-naphthyridine-3-carboxamide]",1 to 10
14,CC(C)n1nnnc1-c1cccc(NC(=O)c2cc3c(cn2)CCN(S(=O)(=O)N(C)C)C3)n1 [Example 111],10 to 100
15,CC(C)n1nnnc1-c1cccc(NC(=O)c2cc3c(cn2)CCN(C(=O)N(C)C2CCCC2)C3)n1 [Example 112],10 to 100
16,CCN(CC)C(=O)N1CCc2cnc(C(=O)Nc3cccc(-c4nnnn4C(C)C)n3)cc2C1 [Example 113],1 to 10
17,CC(C)n1nnnc1-c1cccc(NC(=O)c2cc3c(cn2)CCN(C(=O)N(C)CCC(F)(F)F)C3)n1 [Example 114],10 to 100
18,CCN(C)C(=O)N1CCc2cnc(C(=O)Nc3cccc(-c4nnnn4C(C)C)n3)cc2C1 [Example 115],1 to 10
19,CC(C)n1nnnc1-c1cccc(NC(=O)c2cc3c(cn2)CCN(C(=O)N(C)C)C3)n1 [Example 116],1 to 10
20,CCNC(=O)N1CCc2cnc(C(=O)Nc3cccc(-c4nnnn4C(C)C)n3)cc2C1 [Example 117],1 to 10
21,CCOC(=O)N1CCc2cnc(C(=O)Nc3cccc(-c4nnnn4C(C)C)n3)cc2C1 [Example 118],1 to 10

row,SMILES,IC50 [nM]
1,CC(C)n1nnnc1-c1cccc(NC(=O)c2cc3c(cn2)CCN(C(=O)C2CCCC2)C3)n1 [Example 119],1 to 10
2,C[C@H](CO)n1nnnc1-c1cccc(NC(=O)c2cc3c(cn2)CCN(S(=O)(=O)c2ccccc2)C3)n1 [Example 120],1 to 10
3,C[C@H](CO)n1nnnc1-c1cccc(NC(=O)c2cc3c(cn2)CCN(C(=O)c2ccc(F)cc2)C3)n1 [Example 121],1 to 10
4,COCCC(=O)N1CCc2cnc(C(=O)Nc3cccc(-c4nnnn4[C@H](C)CO)n3)cc2C1 [Example 122],1 to 10
5,C[C@H](CO)n1nnnc1-c1cccc(NC(=O)c2cc3c(cn2)CCN(C(=O)CCC(F)(F)F)C3)n1 [Example 123],1 to 10
6,C[C@H](CO)n1nnnc1-c1cccc(NC(=O)c2cc3c(cn2)CCN(C(=O)C2CCC2)C3)n1 [Example 124],1 to 10
7,CCC(=O)N1CCc2cnc(C(=O)Nc3cccc(-c4nnnn4[C@H](C)CO)n3)cc2C1 [Example 125],1 to 10
8,C[C@H](CO)n1nnnc1-c1cccc(NC(=O)c2cc3c(cn2)CCN(C(=O)OCC(F)(F)F)C3)n1 [Example 126],< 1
9,CC(C)COC(=O)N1CCc2cnc(C(=O)Nc3cccc(-c4nnnn4[C@H](C)CO)n3)cc2C1 [Example 127],1 to 10
10,COC(=O)N1CCc2cnc(C(=O)Nc3cccc(-c4nnnn4[C@H](C)CO)n3)cc2C1 [Example 128],1 to 10
11,C[C@H](CO)n1nnnc1-c1cccc(NC(=O)c2cc3c(cn2)CCN(C(=O)NCc2ccccc2)C3)n1 [Example 129],1 to 10
12,COCCNC(=O)N1CCc2cnc(C(=O)Nc3cccc(-c4nnnn4[C@H](C)CO)n3)cc2C1 [Example 130],1 to 10
13,C[C@H](CO)n1nnnc1-c1cccc(NC(=O)c2cc3c(cn2)CCN(C(=O)NC2CC2)C3)n1 [Example 131],1 to 10
14,CC(C)NC(=O)N1CCc2cnc(C(=O)Nc3cccc(-c4nnnn4[C@H](C)CO)n3)cc2C1 [Example 132],1 to 10
15,C[C@H](CO)n1nnnc1-c1cccc(NC(=O)c2cc3c(cn2)CCN(Cc2ccccc2)C3)n1 [Example 133],1 to 10
16,COCCN1CCc2cnc(C(=O)Nc3cccc(-c4nnnn4[C@H](C)CO)n3)cc2C1 [Example 134],1 to 10
17,CC(C)N1CCc2cnc(C(=O)Nc3cccc(-c4nnnn4[C@H](C)CO)n3)cc2C1 [Example 135],10 to 100
18,CCN1CCc2cnc(C(=O)Nc3cccc(-c4nnnn4[C@H](C)CO)n3)cc2C1 [Example 136],10 to 100
19,CC(C)n1nnnc1-c1cccc(NC(=O)c2cc3c(cn2)CCN(C(=O)N2CCS(=O)(=O)CC2)C3)n1 [Example 137],1 to 10
20,COCCS(=O)(=O)N1CCc2cnc(C(=O)Nc3cccc(-c4nnnn4C(C)C)n3)cc2C1 [Example 138],1 to 10
21,CC(C)n1nnnc1-c1cccc(NC(=O)c2cc3c(cn2)CCN(S(=O)(=O)CC2CC(F)(F)C2)C3)n1 [Example 139],1 to 10

# Source: patent US10450301B2, “Apoptosis signal-regulating kinase 1 inhibitors and methods of use thereof” (ENANTA PHARMACEUTICALS, INC., priority 2017, dated 2019)
